{
  "source": "ChEMBL document CHEMBL6083219",
  "about": "“Rationally designed febuxostat-based hydroxamic acid and its pH-Responsive nanoformulation elicits anti-tumor activity” (Eur J Med Chem, 2024)",
  "key": {"[1]": {"system": "Rattus norvegicus", "assay": "Anti-hyperuricemic activity against potassium oxonate-induced hyperuricemia Wistar rat model assessed as increase in lymphocytes at 5 mg/kg measured after 14 days", "type": "functional, organism-based", "details": "time 14.0 day"}, "[2]": {"system": "HH", "assay": "Cytotoxicity against human HH cells incubated for 1 day by MTT assay", "type": "functional, cell-based", "details": "24 h"}, "[3]": {"system": "Rattus norvegicus", "assay": "Anti-hyperuricemic activity against potassium oxonate-induced hyperuricemia Wistar rat model assessed as improvement in renal condition by measuring decrease in tubular cell swelling at 10 mg/kg measured after 14 days by H and E staining based assay", "type": "functional, organism-based", "details": "time 14.0 day"}, "[4]": {"system": "Rattus norvegicus", "assay": "Anti-hyperuricemic activity against potassium oxonate-induced hyperuricemia Wistar rat model assessed as reduction in DCT expansion at 10 mg/kg measured after 14 days by H and E staining based assay", "type": "functional, organism-based", "details": "time 14.0 day"}, "[5]": {"system": "Rattus norvegicus", "assay": "Anti-hyperuricemic activity against potassium oxonate-induced hyperuricemia Wistar rat model assessed as decrease in number of basophils at 5 mg/kg measured after 14 days", "type": "functional, organism-based", "details": "time 14.0 day"}, "[6]": {"system": "MDA-MB-231", "assay": "Downregulation of HDAC3 expression level in human MDA-MB-231 cells at 0.5 to 2 uM by Western blotting analysis", "type": "functional, cell-based", "details": "dose 0.5-2 µM"}, "[7]": {"system": "Rattus norvegicus", "assay": "Anti-hyperuricemic activity against potassium oxonate-induced hyperuricemia Wistar rat model assessed as improvement in renal condition at 5 mg/kg by measuring decrease in enlargement of glomeruli measured after 14 days by H and E staining based assay", "type": "functional, organism-based", "details": "time 14.0 day"}, "[8]": {"system": "K562", "assay": "Cytotoxicity against human K562 cells incubated for 1 day by MTT assay", "type": "functional, cell-based", "details": "K562, 24 h"}, "[9]": {"system": "HL-60", "assay": "Induction of apoptosis in human HL-60 cells at 0.5 to 2 uM incubated for 48 hrs by propidium iodide staining based flow cytometry analysis", "type": "functional, cell-based", "details": "dose 0.5-2 µM"}, "[10]": {"system": "Rattus norvegicus", "assay": "Anti-hyperuricemic activity against potassium oxonate-induced hyperuricemia Wistar rat model assessed as decrease in serum creatinine level at 5 to 10 mg/kg measured after 14 days", "type": "functional, organism-based", "details": "dose 5-10 mg/kg, time 14.0 day"}, "[11]": {"system": "HL-60", "assay": "Downregulation of HDAC6 expression level in human HL-60 cells at 0.5 to 2 uM by Western blotting analysis", "type": "functional, cell-based", "details": "dose 0.5-2 µM"}, "[12]": {"system": "HL-60", "assay": "Upregulation of acetylated histone H3 level in human HL-60 cells by Western blotting analysis", "type": "functional, cell-based", "details": "dose 0.5-2 µM"}, "[13]": {"system": "MDA-MB-231", "assay": "Downregulation of HDAC2 expression level in human MDA-MB-231 cells at 0.5 to 2 uM by Western blotting analysis", "type": "functional, cell-based", "details": "dose 0.5-2 µM"}, "[14]": {"system": "HL-60", "assay": "Induction of autophagy in human HL-60 cells at 0.5 to 2 uM by acridine orange staining based microscopic assay", "type": "functional, cell-based", "details": "dose 0.5-2 µM"}, "[15]": {"system": "Rattus norvegicus", "assay": "Anti-hyperuricemic activity against potassium oxonate-induced hyperuricemia Wistar rat model assessed as decrease in blood urea level at 5 to 10 mg/kg measured after 14 days", "type": "functional, organism-based", "details": "dose 5-10 mg/kg, time 14.0 day"}},
  "note": "The source made the active and inactive calls. The calls are words filed in the database; no cut-off is given here.",
  "data": [
    {"smiles": "Cc1nc(-c2ccc(OCC(C)C)c(C#N)c2)sc1C(=O)NCCCCCCC(=O)NO", "values": [
      {"measurement": "Activity", "setting": "[1]", "value": "Active"},
      {"measurement": "IC50", "setting": "[2]", "value": 1090, "unit": "nM"},
      {"measurement": "Activity", "setting": "[3]", "value": "Active"},
      {"measurement": "Activity", "setting": "[4]", "value": "Active"},
      {"measurement": "Activity", "setting": "[5]", "value": "Active"},
      {"measurement": "Activity", "setting": "[6]", "value": "Active"},
      {"measurement": "Activity", "setting": "[7]", "value": "Active"},
      {"measurement": "IC50", "setting": "[8]", "value": 1210, "unit": "nM"},
      {"measurement": "Activity", "setting": "[9]", "value": "Active; Activity Similar To Saha"},
      {"measurement": "Activity", "setting": "[10]", "value": "Active"},
      {"measurement": "Activity", "setting": "[11]", "value": "Active; Activity More Potent Than Saha"},
      {"measurement": "Activity", "setting": "[12]", "value": "Dose-dependent-effect"},
      {"measurement": "Activity", "setting": "[13]", "value": "Active"},
      {"measurement": "Activity", "setting": "[14]", "value": "Active"},
      {"measurement": "Activity", "setting": "[15]", "value": "Active"}
    ]}
  ]
}
